From ChEMBL document CHEMBL1143631, “On the binding of indeno[1,2-c]isoquinolines in the DNA-topoisomerase I cleavage complex” (J Med Chem, 2005)
Activity calls are given as the source filed them. No cut-off for these calls is given here.

Biological target: T1, DNA topoisomerase 1 (Homo sapiens) (UniProt P11387)
T1 sequence (whole entry): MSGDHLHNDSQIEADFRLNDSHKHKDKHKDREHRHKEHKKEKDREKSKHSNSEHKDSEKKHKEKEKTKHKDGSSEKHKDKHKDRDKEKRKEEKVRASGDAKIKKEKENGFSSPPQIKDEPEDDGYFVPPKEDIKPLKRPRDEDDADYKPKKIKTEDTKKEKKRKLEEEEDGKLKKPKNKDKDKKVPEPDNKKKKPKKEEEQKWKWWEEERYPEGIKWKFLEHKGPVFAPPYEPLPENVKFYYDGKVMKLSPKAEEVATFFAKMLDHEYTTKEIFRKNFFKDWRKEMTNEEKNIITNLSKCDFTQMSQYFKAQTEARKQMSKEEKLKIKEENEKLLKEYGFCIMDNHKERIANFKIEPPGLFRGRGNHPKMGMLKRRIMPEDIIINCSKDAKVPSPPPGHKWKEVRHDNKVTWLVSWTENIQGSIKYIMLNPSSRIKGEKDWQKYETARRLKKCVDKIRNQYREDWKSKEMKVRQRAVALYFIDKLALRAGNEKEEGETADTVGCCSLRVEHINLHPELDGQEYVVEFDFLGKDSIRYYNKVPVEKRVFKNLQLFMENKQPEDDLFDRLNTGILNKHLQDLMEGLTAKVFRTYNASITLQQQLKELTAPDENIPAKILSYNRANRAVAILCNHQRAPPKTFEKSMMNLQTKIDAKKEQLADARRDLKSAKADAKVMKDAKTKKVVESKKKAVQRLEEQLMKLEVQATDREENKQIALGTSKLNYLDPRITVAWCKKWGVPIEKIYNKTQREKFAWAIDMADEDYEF
Assay: Inhibitory activity against DNA-Topoisomerase I

| inhibition | Compound |
| --- | --- |
| inactive | Nc1ccc2c3c(n(CCCCl)c(=O)c2c1)-c1cc2c(cc1C3=O)OCO2 |
| inactive | O=C1c2cc3c(cc2-c2c1c1ccccc1c(=O)n2CCCCl)OCO3 |
